Entries after “also recorded” stand apart in the source; their conditions may differ.
Key:
[1] = SP16 pharmacokinetic profile, plasma concentration by LC/MS/MS; assay type: in vivo, rat; settings: SP16, IV (5 mg/kg), normal rats
Experimental: In performing the assay, three normal rats were injected intravenously with 5 mg/kg SP16 and the plasma concentration of SP16 established at 8 time points following the injection. […] The assay was executed by Apredica, Boston, Mass.

111 human receptors = experiment: GenSEP Explorer panel, human receptor panning; settings: whole GenSEP Explorer panel
Source text: In addition, we also performed a profile using human receptor panning. The GenSEP Explorer panel contains 111 in vitro assay targets carefully selected to assess drug/chemical biological activities. Assay categories include GPCRs, Voltage-Gated Ion Channels, Ligand-Gated Ion Channels, Neurotransmitter transporters, Nuclear Receptors and Steroids as well as a diverse set of biochemical targets including Phosphodiesterases, Kinases and other relevant enzymes.

hERG = molecular target: T1, hERG (Homo sapiens, UniProt Q12809); experiment: hERG FastPatch assay; assay type: cell-based; settings: test conc 0.008-25 μM
T1 construct: Apredica (contract study)
T1 sequence (Q12809 whole entry): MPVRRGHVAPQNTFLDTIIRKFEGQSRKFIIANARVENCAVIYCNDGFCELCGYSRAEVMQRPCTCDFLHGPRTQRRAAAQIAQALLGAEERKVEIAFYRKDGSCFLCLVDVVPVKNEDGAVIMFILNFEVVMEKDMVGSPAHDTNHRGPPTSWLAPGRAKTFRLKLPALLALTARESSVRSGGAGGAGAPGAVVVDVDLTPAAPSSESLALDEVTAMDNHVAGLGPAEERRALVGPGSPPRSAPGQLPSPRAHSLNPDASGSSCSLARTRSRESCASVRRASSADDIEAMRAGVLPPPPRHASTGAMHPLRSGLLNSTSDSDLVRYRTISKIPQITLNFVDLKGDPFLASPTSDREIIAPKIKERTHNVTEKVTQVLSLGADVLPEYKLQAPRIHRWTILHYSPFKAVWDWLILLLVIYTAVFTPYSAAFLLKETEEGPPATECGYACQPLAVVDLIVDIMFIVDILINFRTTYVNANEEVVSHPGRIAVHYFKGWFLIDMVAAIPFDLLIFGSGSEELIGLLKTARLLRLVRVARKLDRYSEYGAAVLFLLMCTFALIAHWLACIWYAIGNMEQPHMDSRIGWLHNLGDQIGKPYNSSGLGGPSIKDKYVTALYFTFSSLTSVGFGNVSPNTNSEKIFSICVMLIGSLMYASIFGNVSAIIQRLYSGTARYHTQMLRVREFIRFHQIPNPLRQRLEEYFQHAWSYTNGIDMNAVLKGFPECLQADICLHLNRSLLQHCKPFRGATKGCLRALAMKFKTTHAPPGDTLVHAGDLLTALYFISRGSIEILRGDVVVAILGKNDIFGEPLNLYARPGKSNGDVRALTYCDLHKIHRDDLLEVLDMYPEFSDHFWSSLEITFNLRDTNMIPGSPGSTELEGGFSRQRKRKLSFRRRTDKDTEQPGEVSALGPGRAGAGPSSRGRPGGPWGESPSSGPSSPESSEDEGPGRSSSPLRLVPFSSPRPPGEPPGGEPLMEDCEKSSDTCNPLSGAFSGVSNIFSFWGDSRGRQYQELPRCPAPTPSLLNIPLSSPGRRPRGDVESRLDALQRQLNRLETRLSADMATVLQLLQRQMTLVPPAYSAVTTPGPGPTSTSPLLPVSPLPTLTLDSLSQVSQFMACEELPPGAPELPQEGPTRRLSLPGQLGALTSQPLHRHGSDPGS

TLR-2 = molecular target: T2, TLR-2 (Mus musculus, UniProt Q9QUN7); experiment: TLR-2 indicator cell line assay (HEK-Blue mTLR2, Invivogen), secreted alkaline phosphatase; assay type: cell-based; settings: 20 μg/ml peptide for 24 hours (FIGS. 12, 13)
T2 construct: host or cells: HEK-Blue mTLR2 (engineered HEK reporter line secreting alkaline phosphatase)
T2 sequence (Q9QUN7 25-784): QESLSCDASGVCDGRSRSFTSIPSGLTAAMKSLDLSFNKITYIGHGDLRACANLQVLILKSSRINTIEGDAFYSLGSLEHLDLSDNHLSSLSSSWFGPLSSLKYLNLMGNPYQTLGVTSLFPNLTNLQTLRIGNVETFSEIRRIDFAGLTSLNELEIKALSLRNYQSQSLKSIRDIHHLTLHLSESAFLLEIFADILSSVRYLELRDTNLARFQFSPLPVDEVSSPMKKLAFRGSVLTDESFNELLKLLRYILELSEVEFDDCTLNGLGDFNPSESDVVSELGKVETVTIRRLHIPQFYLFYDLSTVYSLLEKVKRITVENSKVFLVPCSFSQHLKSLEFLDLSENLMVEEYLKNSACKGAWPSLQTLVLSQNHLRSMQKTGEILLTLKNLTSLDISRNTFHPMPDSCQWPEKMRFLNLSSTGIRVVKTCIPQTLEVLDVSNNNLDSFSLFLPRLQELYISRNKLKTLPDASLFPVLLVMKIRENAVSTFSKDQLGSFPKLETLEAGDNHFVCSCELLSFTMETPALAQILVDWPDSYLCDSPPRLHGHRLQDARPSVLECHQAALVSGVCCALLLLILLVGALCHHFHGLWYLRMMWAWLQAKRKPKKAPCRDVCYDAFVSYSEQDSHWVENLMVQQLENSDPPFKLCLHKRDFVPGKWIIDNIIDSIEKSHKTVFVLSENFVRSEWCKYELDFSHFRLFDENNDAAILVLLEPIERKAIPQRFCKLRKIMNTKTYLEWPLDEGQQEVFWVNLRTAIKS
Experimental: Graph summarizing representative data from assays with an engineered TLR-2 indicator cell line (HEK-Blue™ mTLR2, Invivogen). Cells were incubated with the indicated concentrations of peptide for 24 hours. Upon TLR2 activation, the cells secrete alkaline phosphatase which can be assayed. The assay was done in triplicate and averages with standard deviations are plotted.
Graph summarizing data from an experiment where an engineered TLR-2 indicator cell line (HEK-Blue™ mTLR2, Invivogen) was used to test the impact of substituting amino acid residues of the SP16 peptide with alanine (“alanine scan”). Cells were incubated with 20 μg/ml of the indicated peptides for 24 hours. Upon TLR2 activation, the cells secrete alkaline phosphatase which can be assayed. The assay was done in triplicate and averages are plotted. Peptide sequences are shown in the following figure. *p<0.05, compared with scrambled control (SP34).
We also performed a peptide optimization assay using an alanine scan with the TLR-2 assay. Data was obtained using an experiment with an engineered TLR-2 indicator cell line (HEK-BLUE™ mTLR2, Invivogen). Cells were incubated with the 20 μg/ml of the indicated peptides for 24 hours. Upon TLR2 activation, the cells secrete alkaline phosphatase which can be assayed. The assay was done in triplicate and averages are plotted. […]

LPS challenged mice = experiment: Mouse LPS challenge model, serum TNF-alpha readout; assay type: in vivo; settings: LPS challenged mice treated with alanine scanned SP16 peptides; compared to Dexamethasone (FIG. 10)
Experimental: In FIG. 10A the mice were treated with alanine scanned SP16 peptide. […] Based on this alanine screen, and without wishing to be bound by a theory, it appears that the C- and N-terminal amino acids contribute to the anti-inflammatory effect of the SP16 peptide. […] Groups of 3 animals were injected with 0.2 mg/kg peptide and subjected to LPS challenge. Serum TNF-alpha levels were determined by ELISA. Several peptides provided the same level of protection as 1 mg/kg Dexamethasone.
The ability of peptide drugs was tested to for their potential for the reduction of inflammatory cytokines following treatment with purified bacterial lipopolysaccharide (LPS)—a major component of bacterial cell wall of Gram negative bacteria. A model of inflammation was used wherein mice were injected with LPS, which induced a transient immune response and a surge of serum inflammatory cytokines. The immune response peaks after 90 minutes and subsides after 24 hours. The levels of key serum inflammatory markers were compared between mice treated and untreated with LPS 90 minutes after injection.
We designed 18 different peptides based on the hAAT sequence (Accession #AAB59371), and had these synthesized using conventional FMOC chemistry. To assess in vivo anti-inflammatory and therapeutic potential, the peptides were tested in a mouse lipopolysaccharide (LPS) challenge model with serum TNFα levels as readout. Using dexamethasone as reference, groups of 3 animals were IP injected with 0.2 mg/kg peptide 2 hours prior to an LPS challenge, and serum TNFα levels determined 30 min after the LPS challenge, by ELISA. The best performing peptide reduced serum TNFα levels equivalent to those achieved with 1 mg/kg dexamethasone. Next, shortened versions of this peptide were synthesized, tested in the mouse LPS challenge model, and a 17 amino acid peptide, SP16, emerged as a lead development candidate for further characterization. Next, SP16 was tested in a lethal endotoxemia model, which models endotoxemia following acute radiation exposure, where Gram negative bacteria leaking from the gastro-intestinal system can cause lethal endotoxemia.
Mice were injected with 0.5, 0.1, 0.02 and 0.004 mg of each peptide. Mice were also treated with dexamethasone as a positive control and vehicle as a negative control. Two hours later each mouse was injected with LPS. Samples were taken 90 minutes after LPS injection.
To evaluate the effect of different amino acids in the SP16 peptide for the immunomodulating effect, we created an alanine screen. […] The peptides wherein the substitution occurred within amino acids 4-14 of SP16, appeared to maintain and rather improve their capacity to reduce TNF-alpha levels compared to the control Dexamethasone. […]

| Compound | TNF-alpha levels (LPS challenged mice) | also measured |
| --- | --- | --- |
| CC[C@H](C)[C@H](NC(=O)[C@H](CCSC)NC(=O)[C@H](CC(C)C)NC(=O)[C@H](Cc1ccccc1)NC(=O)[C@@H](NC(=O)[C@H](Cc1ccccc1)NC(=O)[C@@H]1CCCN1C(=O)[C@H](CCCCN)NC(=O)[C@H](CC(N)=O)NC(=O)[C@H](Cc1ccccc1)NC(=O)[C@H](CCCCN)NC(=O)[C@@H](N)C(C)C)C(C)C)C(=O)N[C@@H](CCC(=O)O)C(=O)N[C@@H](CCC(N)=O)C(=O)N[C@@H](CC(N)=O)C(=O)N[C@H](C(=O)N[C@@H](CCCCN)C(=O)O)[C@@H](C)O [SP16] |  | Last Time point [1]: 8 h; effect on 111 human receptors (111 human receptors): no effect; hERG inhibition (comment) (hERG): does not inhibit hERG; also recorded: No concentration-dependent inhibition |
| A A A N K P F V F L M I E Q N T K (AAANKPFVFLMIEQNTK; listed as Homo sapiens) [SP37, SP16 with residues 1-3 substituted with alanines] |  | impact on TLR-2 signaling (alanine scan) (TLR-2): no impact on TLR2 |
| V K F A A A F V F L M I E Q N T K (VKFAAAFVFLMIEQNTK; listed as Homo sapiens) [SP40] | reduce TNF-alpha levels more than Dexamethasone |  |
| V K F N K P A A A L M I E Q N T K (VKFNKPAAALMIEQNTK; listed as Homo sapiens) [SP43] | reduce TNF-alpha levels more than Dexamethasone |  |
| V K F N K P F V F A A A E Q N T K (VKFNKPFVFAAAEQNTK; listed as Homo sapiens) [SP46] | reduce TNF-alpha levels more than Dexamethasone |  |
| V K F N K P F V F L M I A A A T K (VKFNKPFVFLMIAAATK; listed as Homo sapiens) [SP49] | reduce TNF-alpha levels more than Dexamethasone |  |

Reference: patent publication US9951104B2, “Peptides and methods of using same” (Serpin Pharma, LLC, priority 2012, dated 2018)
